According to US20170326125A1, “MULTISUBSTITUTED AROMATIC COMPOUNDS AS INHIBITORS OF THROMBIN” (VERSEON CORPORATION, priority 2016, published 2017):

Each compound was assayed against T1, Human thrombin (Homo sapiens, UniProt P00734) (assay: Inhibition of the protease activity of thrombin (chromogenic substrate S-2238)). Conditions: Table C; 3 nM thrombin, 125 μM S-2238, 10 min pre-incubation, RT.
T1 construct: purchased Haematologic Technologies Inc
Format: biochemical

IC50 [nM]	Compound
< 100	CC(C)C(=O)n1nc(-c2cccnc2)nc1NCc1ccc(F)cc1 [Cmpd 312, 1-(5-[(4-fluorophenyl)methyl]amino-3-(pyridin-3-yl)-1H-1,2,4-triazol-1-yl)-2-methylpropan-1-one]
> 1000	CCC(=O)n1nc(-c2ccco2)nc1SC [Cmpd 341, 1-[3-(furan-2-yl)-5-(methylsulfanyl)-1H-1,2,4-triazol-1-yl]propan-1-one]
> 1000	COc1ccccc1C(=O)n1nc(-c2ccccc2)nc1N [Cmpd 334, 1-[(2-methoxyphenyl)carbonyl]-3-phenyl-1H-1,2,4-triazol-5-amine]
> 1000	COC(=O)c1n[nH]c(NC(=O)c2ccccc2C)n1 [Cmpd 380, methyl 5-[(2-methylbenzene)amido]-1H-1,2,4-triazole-3-carboxylate]
< 100	O=C(c1cccnc1)n1nc(-c2ccco2)nc1NCc1cccs1 [Cmpd 368, 3-(furan-2-yl)-1-[(pyridin-3-yl)carbonyl]-N-(thiophen-2-ylmethyl)-1H-1,2,4-triazol-5-amine]
< 100	COc1ccc(CNc2nc(-c3cccnc3)nn2C(=O)CC(C)C)cc1 [Cmpd 320, 1-(5-[(4-methoxyphenyl)methyl]amino-3-(pyridin-3-yl)-1H-1,2,4-triazol-1-yl)-3-methylbutan-1-one]

Same assay, conditions: inhibition of the protease activity of thrombin

IC50 [nM]	Compound
100 to 1000	Cc1ccc(C(=O)n2nc(-c3ccccn3)nc2NCc2ccccc2)c(C)c1 [Cmpd 237, N-benzyl-1-[(2,4-dimethylphenyl)carbonyl]-3-(pyridin-2-yl)-1H-1,2,4-triazol-5-amine]
< 100	O=C(c1ccc(Cl)cc1)n1nc(-c2ccncc2)nc1NCc1ccccc1 [Cmpd 263, N-benzyl-1-[(4-chlorophenyl)carbonyl]-3-(pyridin-4-yl)-1H-1,2,4-triazol-5-amine]
< 100	O=C(c1ccsc1)n1nc(-c2ccccn2)nc1NCc1ccc(F)cc1 [Cmpd 219, N-[(4-fluorophenyl)methyl]-3-(pyridin-2-yl)-1-[(thiophen-3-yl)carbonyl]-1H-1,2,4-triazol-5-amine]
> 1000	CCNC(=O)c1cn(-c2ccccn2)nc1NCc1ccc(F)cc1 [Cmpd 295, N-ethyl-3-[(4-fluorophenyl)methyl]amino-1-(pyridin-2-yl)-1H-pyrazole-4-carboxamide]
> 1000	CC(C)(C)OC(=O)n1nc(-c2cccnc2)nc1NCc1ccc(F)cc1 [Cmpd 300, tert-butyl 5-[(4-fluorophenyl)methyl]amino-3-(pyridin-3-yl)-1H-1,2,4-triazole-1-carboxylate]
100 to 1000	CCc1ccccc1C(=O)n1nc(-c2ccccn2)nc1NCc1ccccc1 [Cmpd 246, N-benzyl-1-[(2-ethylphenyl)carbonyl]-3-(pyridin-2-yl)-1H-1,2,4-triazol-5-amine]

Same assay, conditions: inhibition of the protease activity of thrombin; class symbols a/b/c

IC50 [nM]	Compound
< 100	CCC(=O)n1nc(-c2ccncc2)nc1NCc1ccc(F)cc1 [Cmpd 81, 1-(5-[(4-fluorophenyl)methyl]amino-3-(pyridin-4-yl)-1H-1,2,4-triazol-1-yl)propan-1-one]
< 100	COc1ccccc1C(=O)n1nc(-c2cccnc2)nc1SC [Cmpd 182, 3-1-[(2-methoxyphenyl)carbonyl]-5-(methylsulfanyl)-1H-1,2,4-triazol-3-ylpyridine]
> 1000	Nc1cc(-c2ccccn2)nn1-c1ccccc1Cl [Cmpd 42]
> 1000	COc1ccc(CNc2nc(-c3ccncc3)nn2C(=O)CCc2ccccc2)cc1 [Cmpd 98, 1-(5-[(4-methoxyphenyl)methyl]amino-3-(pyridin-4-yl)-1H-1,2,4-triazol-1-yl)-3-phenylpropan-1-one]
> 1000	O=C(c1cccc2c1OC(F)(F)O2)n1nc(-c2ccccc2)nc1NCc1ccc(F)cc1 [Cmpd 101, 1-[(2,2-difluoro-2H-1,3-benzodioxol-4-yl)carbonyl]-N-[(4-fluorophenyl)methyl]-3-phenyl-1H-1,2,4-triazol-5-amine]

Compound	IC50 [nM]
CN(C)C(=O)c1n[nH]c(C(=O)Nc2ccccc2Cl)n1 [Cmpd 186, 5-C-(2-chlorobenzene)-3-N,3-N-dimethyl-1H-1,2,4-triazole-3,5-dicarboxamide]	> 1000
